Test results: US10835506B2, “Treatment and prevention of muscle loss using L-ornithine in combination with at least one of phenylacetate and phenylbutyrate” (OCERA THERAPEUTICS, INC., priority 2015, dated 2020)

Test system: Fisher 344×Brown Norway (FBN) rat
Assay: Treatment of sarcopenia (age-related muscle loss) in FBN hybrid rats
Format: in vivo
Settings: middle age and/or old FBN hybrid rats; OP administered e.g. orally
Protocol: The Fisher 344×Brown Norway (FBN) rat model has been recommended by the National Institute on Aging (NIA) for age-related research. […] Significant muscle mass loss, a reduction in muscle CSA, and muscle fiber loss are expected in, for example, the quadriceps muscles of the aged rat.
OP is administered, for example orally, to young, middle age, and old FBN hybrid rats.

L-ornithine phenylacetate [OP]
muscle mass loss: effective in reducing muscle mass loss
